Reference: patent publication US20120277368A1, “AQUEOUS DISPERSION PRESSURE-SENSITIVE ADHESIVE COMPOSITION AND PRESSURE-SENSITIVE ADHESIVE SHEET” (NITTO DENKO CORPORATION, priority 2011, published 2012)

Test: Solubility in water (25° C.) of crosslinking agent
Format: physicochemical
Procedure: Furthermore, the compound (B) is a water-soluble compound. […] (parts by weight of the compound capable of being dissolved per 100 parts by weight of water) is 1 g or more (1 g/100 g or more), preferably 10 g or more (10 g/100 g or more), and more preferably 30 g or more (30 g/100 g or more). The solubility of the compound (B) in water can be measured, for example, as follows.
Water (25° C.) and a compound (B), having the same weight, are mixed by using a stirrer under the conditions of a rotation speed of 300 rpm and 10 minutes, and the mixture is separated into an aqueous phase and an oil phase by centrifugation. The aqueous phase is then collected and dried at 120° C. for 1 hour, and the nonvolatile content (parts by weight of the nonvolatile component per 100 parts by weight of water) in the aqueous phase is determined from the weight loss on drying.

C1OC1CN(CC1CO1)CC1CO1 (stereo not shown) [N,N,N-tri(2,3-epoxypropyl)amine]
solubility in water (25° C.): 100 g/100 g
